# Data reported in patent US20260092073A1, “NOVEL COMPOUNDS” (Hoffmann-La Roche Inc., priority 2023, published 2026).
# pIC50: −log10 of the molar value.
# Assays:
# NLRP3 [1] = molecular target: T1, NLRP3 (Homo sapiens, UniProt Q96P20); experiment: Human whole blood IL-1β release assay; format: cell-based; set-up: Human whole blood in Li-heparin tubes was obtained from healthy donors; from tissue; host or cells: human whole blood from healthy donors; settings: LPS, nigericin 10 μM, IL-1β by AlphaLisa
# Description: For systemic delivery, the ability to inhibit NLRP3 when the compounds are present within the bloodstream is of great importance. For this reason, the NLRP3 inhibitory activity of a number of compounds in human whole blood was investigated in accordance with the following protocol.
# Human whole blood in Li-heparin tubes was obtained from healthy donors from a volunteer donor panel.
# Plate out 80 μl of whole blood containing […] of LPS in 96-well, clear bottom cell culture plate (Corning #3585)
# Add 10 μl compound (8 points half-log dilution with 10 μM top dose) or vehicle (DMSO 0.1% FAC) to the appropriate wells
# (§1) Incubate for 3 hours at 37° C., 5% CO2
# Add 10 μl nigericin (Sigma #N7143) (10 μM FAC) to all wells
# (§2) Incubate for 1 hr at 37° C., 5% CO2
# At the end of the incubation period, spin plates at 300 xg for 5 mins to pellet cells and remove 20 μl of supernatant and add to 96-well v-bottom plates for IL-1β analysis (note: these plates containing the supernatants can be stored at −80° C. to be analysed at a later date)
# IL-1β was measured according to the manufacturer protocol (Perkin Elmer-AlphaLisa IL-1 Kit AL220F-5000)
# (§3) IC50 data is fitted to a non-linear regression equation (log inhibitor vs response-variable slope 4-parameters)
# NLRP3 [2] = molecular target: T1, NLRP3; experiment: THP-1 cells pyroptosis assay; format: cell-based; set-up: Seed THP-1 cells (25,000 cells/well) containing 1.0 μg/ml LPS; host or cells: THP-1 cells, LPS-primed, nigericin-stimulated; settings: LPS 1.0 μg/ml, nigericin 5 μM, resazurin readout
# Excerpt: It is well established that the activation of NLRP3 leads to cell pyroptosis and this feature plays an important part in the manifestation of clinical disease (Yan-gang Liu et al., Cell Death & Disease, 2017, 8(2), e2579; Alexander Wree et al., Hepatology, 2014, 59(3), 898-910; Alex Baldwin et al., Journal of Medicinal Chemistry, 2016, 59(5), 1691-1710; Ema Ozaki et al., Journal of Inflammation Research, 2015, 8, 15-27; Zhen Xie & Gang Zhao, Neuroimmunology Neuroinflammation, 2014, 1(2), 60-65; Mattia Cocco et al., Journal of Medicinal Chemistry, 2014, 57(24), 10366-10382; T. Satoh et al., Cell Death & Disease, 2013, 4, e644). Therefore, it is anticipated that inhibitors of NLRP3 will block pyroptosis, as well as the release of pro-inflammatory cytokines (e.g. […]) from the cell.
# THP-1 cells (ATCC #TIB-202) were grown in RPMI containing L-glutamine (Gibco #11835) supplemented with 1 mM sodium pyruvate (Sigma #S8636) and penicillin (100 units/ml)/streptomycin (0.1 mg/ml) (Sigma #P4333) in 10% Fetal Bovine Serum (FBS) (Sigma #F0804). The cells were routinely passaged and grown to confluency (˜10^6 cells/ml). On the day of the experiment, THP-1 cells were harvested and resuspended into RPMI medium (without FBS). The cells were then counted and viability (>90%) checked by Trypan blue (Sigma #T8154). Appropriate dilutions were made to give a concentration of 625,000 cells/ml. To this diluted cell solution was added LPS (Sigma #L4524) to give a […] Final Assay Concentration (FAC). 40 μl of the final preparation was aliquoted into each well of a 96-well plate. The plate thus prepared was used for compound screening.
# The following method step-by-step assay was followed for compound screening.
# Seed THP-1 cells (25,000 cells/well) containing 1.0 μg/ml LPS in 40 μl of RPMI medium (without FBS) in 96-well, black walled, clear bottom cell culture plates coated with poly-D-lysine (VWR #734-0317)
# Add 5 μl compound (8 points half-log dilution, with 10 μM top dose) or vehicle (DMSO 0.1% FAC) to the appropriate wells
# as §1
# Add 5 μl nigericin (Sigma #N7143) (FAC 5 μM) to all wells
# as §2
# At the end of the incubation period, spin plates at 300 xg for 3 mins and remove supernatant
# Then add 50 μl of resazurin (Sigma #R7017) (FAC 100 μM resazurin in RPMI medium without FBS) and incubate plates for a further 1-2 hours at 37° C. and 5% CO2
# Plates were read in an Envision reader at Ex 560 nm and Em 590 nm
# as §3
# T1 sequence (Q96P20 whole entry): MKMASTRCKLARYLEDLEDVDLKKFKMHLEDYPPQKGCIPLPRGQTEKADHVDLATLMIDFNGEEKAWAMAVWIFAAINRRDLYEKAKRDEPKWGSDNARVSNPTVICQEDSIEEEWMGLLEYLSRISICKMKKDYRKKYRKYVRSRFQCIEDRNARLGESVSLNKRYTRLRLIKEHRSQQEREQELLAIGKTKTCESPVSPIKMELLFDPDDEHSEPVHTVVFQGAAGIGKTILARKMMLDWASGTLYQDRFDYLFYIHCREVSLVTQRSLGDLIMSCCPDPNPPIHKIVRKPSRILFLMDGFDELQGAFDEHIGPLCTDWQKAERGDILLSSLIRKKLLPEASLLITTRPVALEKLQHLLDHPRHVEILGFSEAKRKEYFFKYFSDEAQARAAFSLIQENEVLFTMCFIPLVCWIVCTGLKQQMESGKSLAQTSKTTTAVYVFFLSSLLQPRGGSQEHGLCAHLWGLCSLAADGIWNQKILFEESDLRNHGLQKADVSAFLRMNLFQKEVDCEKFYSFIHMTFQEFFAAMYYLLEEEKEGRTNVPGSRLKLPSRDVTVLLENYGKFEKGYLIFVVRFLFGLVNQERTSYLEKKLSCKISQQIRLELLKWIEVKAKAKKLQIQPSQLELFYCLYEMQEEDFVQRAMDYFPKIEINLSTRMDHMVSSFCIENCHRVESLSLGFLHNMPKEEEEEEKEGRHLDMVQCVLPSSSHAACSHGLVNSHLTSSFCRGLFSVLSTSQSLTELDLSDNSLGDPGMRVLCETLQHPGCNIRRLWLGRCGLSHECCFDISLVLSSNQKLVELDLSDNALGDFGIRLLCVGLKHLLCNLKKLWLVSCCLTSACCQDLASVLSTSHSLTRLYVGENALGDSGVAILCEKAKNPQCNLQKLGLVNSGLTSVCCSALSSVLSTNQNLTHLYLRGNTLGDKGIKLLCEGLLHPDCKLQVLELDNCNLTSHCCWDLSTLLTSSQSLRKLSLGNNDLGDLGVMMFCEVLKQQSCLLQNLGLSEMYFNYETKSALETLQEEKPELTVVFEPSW
pIC50 (NLRP3 [1]),pIC50 (NLRP3 [2]),Compound
7.08,7.35,"Cc1cc(C#N)cc(O)c1-c1ccc2oc(N[C@H]3CNC[C@@H](O)C3)nc2n1 [Example 9, 3-Hydroxy-4-[2-[[(3R,5S)-5-hydroxy-3-piperidyl]amino]oxazolo[4,5-b]pyridin-5-yl]-5-methyl-benzonitrile]"
7.54,8.30,"Cc1cc(C#N)cc(O)c1-c1cnc2oc(N[C@@H]3CCCN(CCO)C3)nc2n1 [Example 10, 3-Hydroxy-4-[2-[[(3R)-1-(2-hydroxyethyl)-3-piperidyl]amino]oxazolo[4,5-b]pyrazin-5-yl]-5-methyl-benzonitrile]"
8.10,8.40,"COCc1cc2c(c(O)c1-c1cnc3oc(N[C@@H]4CCCN(CCO)C4)nc3n1)CCO2 [Example 11, 5-[2-[[(3R)-1-(2-Hydroxyethyl)-3-piperidyl]amino]oxazolo[4,5-b]pyrazin-5-yl]-6-(methoxymethyl)-2,3-dihydrobenzofuran-4-ol]"
7.72,9.10,"Cc1cc2c(c(O)c1-c1cnc3oc(N[C@@H]4CCCN(CCO)C4)nc3n1)CCO2 [Example 13, 5-[2-[[(3R)-1-(2-Hydroxyethyl)-3-piperidyl]amino]oxazolo[4,5-b]pyrazin-5-yl]-6-methyl-2,3-dihydrobenzofuran-4-ol]"
7.66,8.10,"COc1cc(-c2c(C)cc(C#N)cc2O)nc2nc(N[C@@H]3CCCN(CCO)C3)oc12 [Example 16, 3-Hydroxy-4-[2-[[(3R)-1-(2-hydroxyethyl)-3-piperidyl]amino]-7-methoxy-oxazolo[4,5-b]pyridin-5-yl]-5-methyl-benzonitrile]"
7.74,8.52,"CCN1C[C@@H](O)C[C@@H](Nc2nc3nc(-c4c(C)cc(C#N)cc4O)cnc3o2)C1 [Example 17, 4-[2-[[(3R,5S)-1-Ethyl-5-hydroxy-3-piperidyl]amino]oxazolo[4,5-b]pyrazin-5-yl]-3-hydroxy-5-methyl-benzonitrile]"
–,8.40,"COc1cc(-c2c(C)cc3c(c2O)CCC3)nc2nc(N[C@@H]3CCCN(CCO)C3)oc12 [Example 19, 5-[2-[[(3R)-1-(2-Hydroxyethyl)-3-piperidyl]amino]-7-methoxy-oxazolo[4,5-b]pyridin-5-yl]-6-methyl-indan-4-ol]"
7.17,7.12,"COCc1cc(C#N)cc(O)c1-c1cc(OC)c2oc(N[C@@H]3CCCN(CCO)C3)nc2n1 [Example 20, 3-Hydroxy-4-[2-[[(3R)-1-(2-hydroxyethyl)-3-piperidyl]amino]-7-methoxy-oxazolo[4,5-b]pyridin-5-yl]-5-(methoxymethyl)benzonitrile]"
–,8.05,"COCc1cc2c(c(O)c1-c1cc(OC)c3oc(N[C@@H]4CCCN(CCO)C4)nc3n1)CCO2 [Example 21, 5-[2-[[(3R)-1-(2-Hydroxyethyl)-3-piperidyl]amino]-7-methoxy-oxazolo[4,5-b]pyridin-5-yl]-6-(methoxymethyl)-2,3-dihydrobenzofuran-4-ol]"
7.41,8.30,"COc1cc(-c2c(C)cc3c(c2O)CCO3)nc2nc(N[C@@H]3CCCN(CCO)C3)oc12 [Example 22, 5-[2-[[(3R)-1-(2-Hydroxyethyl)-3-piperidyl]amino]-7-methoxy-oxazolo[4,5-b]pyridin-5-yl]-6-methyl-2,3-dihydrobenzofuran-4-ol]"
7.47,7.36,"CCN1C[C@@H](O)C[C@@H](Nc2nc3nc(-c4c(O)cc(C#N)cc4COC)cnc3o2)C1 [Example 23, 4-[2-[[(3R,5S)-1-Ethyl-5-hydroxy-3-piperidyl]amino]oxazolo[4,5-b]pyrazin-5-yl]-3-hydroxy-5-(methoxymethyl)benzonitrile;2,2,2-trifluoroacetic Acid]"
7.28,7.72,"Cc1cc2c(c(O)c1-c1cnc3oc(N[C@@H]4C[C@H](O)CN(CCO)C4)nc3n1)CCO2 [Example 24, (3S,5R)-1-(2-Hydroxyethyl)-5-[[5-(4-hydroxy-6-methyl-2,3-dihydrobenzofuran-5-yl)oxazolo[4,5-b]pyrazin-2-yl]amino]piperidin-3-ol]"

# The remaining lines, values behind:
Compound,pIC50 (NLRP3 [1]),pIC50 (NLRP3 [2])
"Cc1cc(C#N)cc(O)c1-c1cnc2oc(N[C@@H]3CCCN(CCO)C3)nc2n1 [Example 1, 3-Hydroxy-4-[2-[[(3R)-1-(2-hydroxyethyl)-3-piperidyl]amino]oxazolo[4,5-b]pyrazin-5-yl]-5-methyl-benzonitrile;2,2,2-trifluoroacetic Acid]",7.62,8.48
"CCN1C[C@@H](O)C[C@@H](Nc2nc3nc(-c4c(C)cc(C#N)cc4O)cnc3o2)C1 [Example 2, 4-[2-[[(3R,5S)-1-Ethyl-5-hydroxy-3-piperidyl]amino]oxazolo[4,5-b]pyrazin-5-yl]-3-hydroxy-5-methyl-benzonitrile;2,2,2-trifluoroacetic Acid]",7.71,8.37
"COCc1cc(C#N)cc(O)c1-c1ccc2oc(N[C@@H]3CCCN(CCO)C3)nc2n1 [Example 3, 3-Hydroxy-4-[2-[[(3R)-1-(2-hydroxyethyl)-3-piperidyl]amino]oxazolo[4,5-b]pyridin-5-yl]-5-(methoxymethyl)benzonitrile]",7.45,7.55
"Cc1cc(C#N)cc(O)c1-c1ccc2oc(N[C@@H]3CCCN(CCc4ncco4)C3)nc2n1 [Example 4, 3-Hydroxy-5-methyl-4-[2-[[(3R)-1-(2-oxazol-2-ylethyl)-3-piperidyl]amino]oxazolo[4,5-b]pyridin-5-yl]benzonitrile]",6.72,7.58
"Cc1cc(C(F)(F)F)cc(O)c1-c1ccc2oc(N[C@@H]3C[C@H](O)CN(CCCC(=O)O)C3)nc2n1 [Example 5, 4-[(3S,5R)-3-Hydroxy-5-[[5-[2-hydroxy-6-methyl-4-(trifluoromethyl)phenyl]oxazolo[4,5-b]pyridin-2-yl]amino]-1-piperidyl]butanoic Acid]",6.36,7.29
"Cc1cc(C(F)(F)F)cc(O)c1-c1ccc2oc(N[C@@H]3C[C@H](O)CN(CCO)C3)nc2n1 [Example 6, (3S,5R)-1-(2-Hydroxyethyl)-5-[[5-[2-hydroxy-6-methyl-4-(trifluoromethyl)phenyl]oxazolo[4,5-b]pyridin-2-yl]amino]piperidin-3-ol]",7.02,7.92
"Cc1cc(C#N)cc(O)c1-c1cnc2oc(N[C@@H]3C[C@H](O)CN(C)C3)nc2n1 [Example 7, 3-Hydroxy-4-[2-[[(3R,5S)-5-hydroxy-1-methyl-3-piperidyl]amino]oxazolo[4,5-b]pyrazin-5-yl]-5-methyl-benzonitrile;2,2,2-trifluoroacetic Acid]",7.77,8.00
"COc1cc(-c2c(C)cc(C#N)cc2O)nc2nc(N[C@@H]3CCCN(CCO)C3)oc12 [Example 8, 3-Hydroxy-4-[2-[[(3R)-1-(2-hydroxyethyl)-3-piperidyl]amino]-7-methoxy-oxazolo[4,5-b]pyridin-5-yl]-5-methyl-benzonitrile;2,2,2-trifluoroacetic Acid]",7.55,7.96
